Experimental findings from US8951527B2, “Radioprotectants targeting thrombospondin-1 and CD47” (The United States of America, as represented by the …, priority 2008, dated 2015) are described below.

“Also recorded” adds a separate entry of the source.

Series [1] concerns HUVEC. Description: HUVEC cell viability after irradiation (MTT / CellTiter 96). The format is cell-based, human. Conditions: for cell viability after graded doses of peptide and radiation: peptide 1 hour before 0, 10, 20, 30, 40 Gray, 72 hours (FIG. 12); for survival / cell death of irradiated HUVEC (MTT): 40 Gy or no radiation, 48 hours post radiation (FIG. 22). Here is the method:
FIG. 11. Radioprotective activities of TSP1 and CD47 antibodies, a CD47 binding peptide from TSP1, and a CD47 morpholino. HUVEC were plated on 96-well plates in standard growth medium. Cells were treated with TSP1 (FIG. 11A) or CD47 (FIG. 11B) monoclonal antibodies (clone A6.1 or B6H12, respectively) and received the indicated doses of radiation 24 hours after addition of the antibodies. Cell (mitochondrial) viability was measured 48 hours post irradiation using an MTT assay. Cells were treated using peptide 7N3 (FIG. 11C) and control peptide 604 (FIG. 11D), subjected to the same experimental conditions, and assayed via MTT. […] Experiments were repeated 3 times and results presented as the mean±SD.
FIG. 12. Peptides 7N3 and C6d are radioprotective to HUVEC in culture. Human umbilical vein endothelial cells (HUVEC) grown in EGM medium in 96-well plates were treated with graded doses of a peptide agent, as indicated. One hour later, cells were exposed to a single dose of gamma radiation (0, 10, 20, 30, and 40 Gray) and allowed to incubate 72 hours at 37° C. Cell viability was determined with the CellTiter 96 AQueous One Solution Cell Proliferation Assay.
(§1) Cell Viability Assay. HUVEC were plated at a density of 5000 cells/well in 96 well plates (Nunc), and were treated 24 hours later with either the indicated doses of a CD47 antibody (B6H12), a TSP1 antibody (A6.1), the CD47-binding peptide 7N3, or control peptide 604. One hour later the cells were exposed to a single dose of gamma radiation (0, 10, 20, 30, and 40 Gy) and allowed to incubate another 72 hours at 37° C. Experiments done with B16E10 melanoma cells in Example 4 were done in a similar manner treating either 1 hour prior to a single dose of radiation (10 Gy) with peptide 7N3 or 48 hours prior with CD47 morpholino. Cell viability was determined using the CellTiter 96 Aqueous One Solution cell proliferation assay (Promega, Madison, Wis.) as per the manufacturer's instructions and absorbance at 490 nm was determined using an MR580 Microelisa AutoReader (Dynatech, Alexandria, Va.). The same assay was performed on HUVEC using either the CD47 or CD36 morpholino, but 48 hours were allowed to pass prior to radiation (0 or 40 Gy) to allow for suppression of the target proteins. Similarly, control experiments were performed using the nitric oxide synthase (NOS) inhibitor L-NAME, a membrane permeable cGMP analogue, 8-Bromo cGMP, or the NO donor DETA/NO.
In an additional experiment to test the effect of radioprotective peptides, human umbilical vein endothelial cells (HUVEC) grown in EGM medium in 96-well plates were treated with graded doses of a peptide agent, as indicated. One hour later, cells were exposed to a single dose of gamma radiation (0, 10, 20, 30, and 40 Gray) and allowed to incubate 72 hours at 37° C. Cell viability was determined with the CellTiter 96 AQueous One Solution Cell Proliferation Assay.

In series [2] the test system is HUVEC. Briefly: HUVEC proliferation post-radiation (BrdU incorporation). The format is cell-based, human. To be noted: treated 48 hours before 10 Gy, over 1 week (FIG. 14). As to the method:
FIG. 14. TSP1 and CD47 antibodies or antisense suppression of CD47 maintain proliferation of irradiated HUVEC. HUVEC were plated in 96-well plates in growth medium and treated with CD47 morpholino (FIG. 14A; *p<0.05, #p<0.01) TSP1, or CD47 antibodies (FIG. 14B; *p<0.05, #p<0.01) and exposed to 10 Gy irradiation 48 hours later. Cell proliferation at the indicated times post-radiation was determined by intracellular BrdU incorporation. Experiments were repeated 3 times, and results presented as the mean±SD.
FIG. 15. HUVEC protected by radioprotective agents are both viable and proliferate at a better rate than untreated cells in culture. Proliferation was assessed by quantifying incorporation of bromodeoxyuridine (BrdU) into newly synthesized DNA using a BrdU Cell Proliferation Assay. HUVEC were seeded into 96 well plates for 24 hours at 37° C., then treated with either antibody A6.1 or B6H12 or peptide 7N3. The treated cells were irradiated at 40 Gy 1 hour later. Control and irradiated plates were assayed for BrdU uptake over 96 hours post-radiation. The assay was performed according to the manufacturer's protocol, and the plates were read at 420 nm.
Cell proliferation assay: Proliferation was assessed by quantifying incorporation of bromodeoxyuridine (BrdU) into newly synthesized DNA using a BrdU Cell Proliferation Assay (Calbiochem, La Jolla, Calif.). Primary murine wild type, TSP1, TSP2, and CD47 null lung endothelial cells were seeded into 96 well plates at 5×10^4 cells/well density. After 24 hours incubation at 37° C. treatment groups were irradiated at 40 Gy. Control and irradiated plates were assayed for BrdU uptake over 24 hours starting at 48 to 168 hours post-radiation. The assay was performed according to the manufacturer's protocol, and the plates were read at 420 nm.
Proliferative capacities were also determined in endothelial cells exposed to high doses of radiation of 40 Gy. […] The assay was performed according to the manufacturer's protocol, and the plates were read at 420 nm.
(In general: Incorporation of labelled thymidine or its analogues reports DNA synthesis.)

Another series deals with B16F10 melanoma cells. Briefly: B16F10 melanoma cell viability after irradiation in vitro. To be noted: 7N3 1 hour or morpholino 48 hours before 10 Gy, versus untreated cells. It is filed as cell-based, mouse. Here is the method: FIG. 19. CD47 suppression enhances re-growth delay in irradiated syngeneic B16 melanoma and squamous cell carcinoma tumors but increases radioresistance of B16 cells in vitro. C57BL/6 mice were injected with 1×10^6 B16 mouse melanoma cells into their right hindlimbs. Five days later, the mice were randomized into 4 groups (12 mice in each group) where they either received injections of CD47 morpholino (10 μM) in sterile PBS, PBS, or no injection. The two groups receiving injections were then subjected to radiation (10 Gy) to the effected hindlimb 48 hours later. The other two groups served as controls and consisted of tumor alone or tumor subjected to only the morpholino. Tumors were followed post-radiation for 30 days, measuring their volume every 6 days (FIG. 19A). […] Cell (mitochondrial) viability was measured 48 hours post radiation using the MTT assay.
Cell Viability Assay. […] Cell viability was determined using the CellTiter 96 Aqueous One Solution cell proliferation assay (Promega, Madison, Wis.) as per the manufacturer's instructions and absorbance at 490 nm was determined using an MR580 Microelisa AutoReader (Dynatech, Alexandria, Va.). […]
Irradiation of cells. […] The dose rate at 50 cm from the x-ray source was 242 cGy/minute, as determined by multiple thermo luminescent dosimeter readings.

The subject of a further series is HAVSMC. Description: HAVSMC cell viability after irradiation (CellTiter 96). Conditions: greater doses of radiation (FIG. 13). It is filed as cell-based, human. Here is the method: FIG. 13. Peptide 7N3 is radioprotective to HAVSMC in culture. Human aortic vascular smooth muscle cells (HAVSMC) were also subjected to the CellTiter 96 Aqueous One Solution cell proliferation assay (Promega, Madison, Wis.).
as §1, with “Similarly, control experiments were performed using the nitric oxide synthase (NOS) inhibitor L-NAME, a membrane permeable cGMP analogue, 8-Bromo cGMP, or the NO donor DETA/NO.” left out

A further series concerns C57BL/6 wild type mice. Description: Hindlimb irradiation (25 Gy), skin reaction / tissue necrosis grading and histology. To be noted: 10 μM in 750 μl PBS local-regional, 48 hours before 25 Gy, 8 weeks. The format is in vivo, mouse. Here is the method:
FIG. 16. CD47 suppression using an antisense morpholino minimizes tissue damage from radiation injury. Age and sex matched C57BL16 wild type mice underwent a one-time treatment of the right hindlimb with either a murine specific CD47 morpholino oligonucleotide (10 μM in 750 μl PBS) or 750 μl of PBS injected local-regionally to the muscle and soft tissues. […] At the end of 8 weeks, there was a considerable amount of alopecia, dry desquamation and early signs of fibrotic contractures within the irradiated hind limbs of mice receiving only PBS. […] The tissue necrosis grading scores for 8 animals are presented as mean±SD (FIG. 16B) and show a similar trend throughout the 8-week observation period.
Skin reaction: Skin reaction following hind limb irradiation was quantified every week following treatment for 8 weeks using a previously described grading system (Flanders et al., Am J Pathol 163:2247-2257, 2003). The grading system consisted of 5 categories: normal, hair loss, erythema, dry desquamation and moist desquamation/ulceration.
Irradiation of mice: Age and sex matched wild type mice underwent local irradiation to the right hindlimb as described in Example 1. Forty-eight hours prior to irradiation, animals received the CD47 morpholino (SEQ ID NO: 4), a control morpholino (SEQ ID NO: 5) (both at 10 μM in […] PBS via intramuscular injection), vehicle, or no treatment to the hind limb. Under 1% isoflurane inhalation anesthesia, the animals were placed in customized Lucite jigs that allow for immobilization and selective irradiation of the right hindlimb. A single radiation dose of 25 Gy was delivered by a Therapax® DXT300 X-ray irradiator (Pantak, Inc., East Haven, Conn.) using 2.0-mm A1 filtration (300 kVp) at a dose rate of 2.53 Gy/min. Care was taken to avoid irradiation of other body parts by using lead shields specifically designed as a part of the jigs. After irradiation, the animals were placed in cages as indicated above and observed weekly. Skin reaction after hind limb irradiation was quantified every week after treatment for 8 weeks using a previously described grading system (Flanders et al., Am J. Pathol 163:2247-2257, 2003). Briefly, tissue necrosis grading system consists of 5 categories: normal, hair loss, erythema, dry desquamation, and moist desquamation/ulceration.
Age and sex matched C57BL16 wild type mice underwent a one-time treatment of the right hindlimb with the CD47 antisense morpholino oligonucleotide (10 μM in 750 μl PBS), a mismatched control morpholino, or vehicle (PBS) injected local-regionally to the muscle and soft tissues.

Regarding “CD36 morpholino: antisense morpholino specific for the TSP1 receptor CD36 (antisense ATGGGCTGTGACCGGAACTGTGGGC; all phosphorodiamidate morpholino (PMO)) [reference compound]”, the “cell viability post radiation after morpholino pretreatment” value in the series on HUVEC [1] (morpholino 48 hours before radiation (FIG. 11E, F)) is recorded as “no radioprotection; also recorded: decrease in cellular viability similar to that of untreated cells”. Moreover, in the series on HUVEC [2], the “proliferation (BrdU incorporation / DNA synthesis) after 10 Gy” value was “not seen”.

Turning to FIRVVMYEGKK [7N3], the “cell viability after 10 Gy” value in the series with B16F10 melanoma cells was “mild radioprotective effect”. The “cell (mitochondrial) viability post irradiation” value with HUVEC [1] (antibody or peptide before radiation, 0-40 Gy (FIG. 11A-D)) is recorded as “enhanced cell survival post-irradiation”. Moreover, the “cell viability after graded doses of peptide and radiation” value (“cell viability after graded doses” below) with HUVEC [1] is reported as “protective effect”. In the series on HAVSMC, the “cell viability after radiation” value is “profound radioprotective protective effect”.

For the compound “FIRGGMYEGKK [compound 604, control peptide, reference compound]”, the “cell viability after graded doses” value in the series with HUVEC [1] was “virtually no protection”.

As for `Nc1nc2c(nc(Br)n2[C@@H]2O[C@@H]3COP(=O)(O)O[C@H]3[C@H]2O)c(=O)[nH]1` [cell permeable cGMP analog, 8-Bromo cyclic guanine monophosphate, reference compound], the “survival / cell death of irradiated HUVEC (MTT)” value in the series on HUVEC [1] is recorded as “did not confer a significant survival advantage”.

For `NCCN(CCN)/[N+]([O-])=N/O` [DETA/NO, reference compound], the “survival / cell death of irradiated HUVEC (MTT)” value in the series with HUVEC [1] is “did not confer a significant survival advantage”.

As to “control morpholino: mismatched control morpholino from GeneTools (CGTGACAGCCACGACCGACTGCGCA; all phosphorodiamidate morpholino (PMO)) [reference compound]”, the “proliferation (BrdU incorporation / DNA synthesis) after 10 Gy” value in the series with HUVEC [2] is reported as “not”. In the series with C57BL/6 wild type mice, the “skin reaction / tissue damage of irradiated hindlimb” value was “significant alopecia, dry and wet desquamation, and tissue ulceration with fibrous contracture”.

For “HIGWKDFTAYRWRLS [C6d, radioprotective peptide]”, the “cell viability after graded doses” value in the series on HUVEC [1] was “protective effect”.
